From paper PMC6746701, “A phyB-PIF1-SPA1 kinase regulatory complex promotes photomorphogenesis in Arabidopsis” (Nature Communications, 2019)

Tests used:
Format in all cases: biochemical
[1] = target: T1, phyB (Arabidopsis thaliana, UniProt P14713); test: in vitro kinase assay, autoradiogram; conditions: PIF1 as co-substrate, 10 mM MgCl2, pH 7.5, 28 °C; labelled compound (gamma-32P)
T1 construct: full length (1172 aa), strep-tagged from Pichia pastoris GS115 or GFP fusion from Saccharomyces cerevisiae; holoprotein with phycocyanobilin; dimer
T1 sequence (P14713 1-1172): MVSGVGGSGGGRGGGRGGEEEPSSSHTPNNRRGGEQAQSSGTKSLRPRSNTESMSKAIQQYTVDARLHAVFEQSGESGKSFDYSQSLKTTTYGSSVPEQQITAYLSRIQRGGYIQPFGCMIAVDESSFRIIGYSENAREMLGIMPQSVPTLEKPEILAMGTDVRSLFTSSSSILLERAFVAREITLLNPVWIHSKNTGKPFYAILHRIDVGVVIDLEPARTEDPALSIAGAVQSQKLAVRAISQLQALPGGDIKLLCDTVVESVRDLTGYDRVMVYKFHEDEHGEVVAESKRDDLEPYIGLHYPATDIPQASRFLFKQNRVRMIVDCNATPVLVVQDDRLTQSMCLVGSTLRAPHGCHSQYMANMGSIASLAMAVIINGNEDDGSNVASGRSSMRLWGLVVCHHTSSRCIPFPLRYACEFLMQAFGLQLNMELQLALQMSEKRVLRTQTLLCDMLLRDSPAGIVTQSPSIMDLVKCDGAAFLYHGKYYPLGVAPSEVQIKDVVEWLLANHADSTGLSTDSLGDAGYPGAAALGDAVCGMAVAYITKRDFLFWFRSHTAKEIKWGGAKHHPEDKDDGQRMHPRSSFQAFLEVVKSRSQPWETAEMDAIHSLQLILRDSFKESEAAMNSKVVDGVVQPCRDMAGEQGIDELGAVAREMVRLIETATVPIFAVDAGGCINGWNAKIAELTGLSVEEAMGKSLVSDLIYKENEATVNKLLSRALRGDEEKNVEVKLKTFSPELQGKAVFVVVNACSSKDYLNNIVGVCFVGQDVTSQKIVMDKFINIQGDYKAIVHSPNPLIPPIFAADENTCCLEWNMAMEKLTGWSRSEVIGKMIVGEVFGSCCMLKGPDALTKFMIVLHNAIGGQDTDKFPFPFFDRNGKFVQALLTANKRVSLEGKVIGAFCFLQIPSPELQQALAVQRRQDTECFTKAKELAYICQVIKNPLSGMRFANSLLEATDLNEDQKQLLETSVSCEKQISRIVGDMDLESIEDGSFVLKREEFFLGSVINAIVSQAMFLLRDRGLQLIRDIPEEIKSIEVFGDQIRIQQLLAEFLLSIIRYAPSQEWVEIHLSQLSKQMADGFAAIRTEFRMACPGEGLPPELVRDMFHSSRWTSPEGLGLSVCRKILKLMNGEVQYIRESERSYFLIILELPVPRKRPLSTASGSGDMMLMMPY

[2] = target: T2, full-length SPA1 (Arabidopsis thaliana, UniProt Q9SYX2, R517E); test: in vitro kinase assay, autoradiogram; conditions: GST-PIF1 as co-substrate, 10 mM MgCl2, pH 7.5, 28 °C; labelled compound (gamma-32P)
T2 construct: full length, strep-tagged (3x Flag also cloned), Pichia pastoris GS115, tags kept
T2 sequence (Q9SYX2 1-1029 R517E): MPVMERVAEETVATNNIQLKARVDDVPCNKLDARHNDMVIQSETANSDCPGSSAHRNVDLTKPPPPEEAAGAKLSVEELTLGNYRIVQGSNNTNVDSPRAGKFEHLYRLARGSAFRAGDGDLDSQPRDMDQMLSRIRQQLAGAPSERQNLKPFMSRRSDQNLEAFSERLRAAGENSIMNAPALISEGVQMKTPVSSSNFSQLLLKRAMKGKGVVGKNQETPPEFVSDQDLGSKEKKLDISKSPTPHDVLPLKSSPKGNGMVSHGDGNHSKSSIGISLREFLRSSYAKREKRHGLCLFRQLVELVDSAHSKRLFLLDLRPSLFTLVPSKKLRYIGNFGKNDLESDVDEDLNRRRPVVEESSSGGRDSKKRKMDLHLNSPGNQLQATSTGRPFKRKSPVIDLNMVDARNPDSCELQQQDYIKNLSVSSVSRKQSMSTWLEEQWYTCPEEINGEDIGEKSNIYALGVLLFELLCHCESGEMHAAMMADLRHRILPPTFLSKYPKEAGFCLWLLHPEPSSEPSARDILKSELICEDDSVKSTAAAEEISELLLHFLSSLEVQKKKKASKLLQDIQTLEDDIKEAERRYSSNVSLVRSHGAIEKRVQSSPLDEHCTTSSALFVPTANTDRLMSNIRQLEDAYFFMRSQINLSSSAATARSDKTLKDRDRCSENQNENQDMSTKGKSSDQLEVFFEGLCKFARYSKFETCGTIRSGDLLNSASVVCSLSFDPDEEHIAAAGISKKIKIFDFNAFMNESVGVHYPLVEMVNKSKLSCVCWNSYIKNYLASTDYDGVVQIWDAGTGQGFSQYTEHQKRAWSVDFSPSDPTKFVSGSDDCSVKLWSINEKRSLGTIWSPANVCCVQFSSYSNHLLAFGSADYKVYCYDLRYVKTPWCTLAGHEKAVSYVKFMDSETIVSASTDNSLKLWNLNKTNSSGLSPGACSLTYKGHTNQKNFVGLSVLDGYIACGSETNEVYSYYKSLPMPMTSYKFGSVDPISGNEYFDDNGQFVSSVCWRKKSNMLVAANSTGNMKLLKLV

[3] = target: T3, SPA1-Kin (Arabidopsis thaliana, UniProt Q9SYX2, R517E, form not given); test: in vitro autophosphorylation assay, autoradiogram; conditions: 10 mM MgCl2, pH 7.5, 28 °C; labelled compound (gamma-32P)
T3 sequence (Q9SYX2 1-545 R517E limits assumed): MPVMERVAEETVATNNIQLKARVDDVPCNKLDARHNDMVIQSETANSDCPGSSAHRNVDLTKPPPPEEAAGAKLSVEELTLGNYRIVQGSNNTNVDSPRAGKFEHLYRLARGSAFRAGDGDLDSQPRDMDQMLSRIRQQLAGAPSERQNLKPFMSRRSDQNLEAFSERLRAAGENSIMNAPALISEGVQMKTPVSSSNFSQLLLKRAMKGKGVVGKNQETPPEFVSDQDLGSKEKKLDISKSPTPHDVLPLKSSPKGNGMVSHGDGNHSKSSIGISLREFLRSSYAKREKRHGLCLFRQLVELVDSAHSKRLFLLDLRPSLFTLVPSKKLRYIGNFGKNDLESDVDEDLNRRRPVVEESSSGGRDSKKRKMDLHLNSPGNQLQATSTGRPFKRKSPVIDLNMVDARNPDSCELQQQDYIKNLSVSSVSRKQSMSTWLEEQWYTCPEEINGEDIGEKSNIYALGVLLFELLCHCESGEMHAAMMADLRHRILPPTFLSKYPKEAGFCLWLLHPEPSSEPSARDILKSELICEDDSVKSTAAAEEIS

Nc1ncnc2c1ncn2[C@@H]1O[C@H](COP(=O)(O)OP(=O)(O)OP(=O)(O)O)[C@@H](O)[C@H]1O [ATP]
in vitro kinase assay, autoradiogram [1]: both SPA1 and phyB independently phosphorylates PIF1 in vitro | in vitro kinase assay, autoradiogram [2]: mSPA1 showed significantly reduced PIF1 phosphorylation compared to the wild type SPA1 | in vitro autophosphorylation assay, autoradiogram [3]: significantly reduced auto-phosphorylation activity for the SPA1-Kin^R517E (mSPA1) mutant
